Data as given in PubChem BioAssay (NCI).
“And” between values parts separate entries of the source, which are not always exact repeats. Equal values may be shown once.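 Method: 48-hour compound exposure of cells in 96-well plates, five concentrations, linear interpolation of endpoints. GI50: concentration for 50% inhibition of growth. TGI is the concentration that stops growth completely.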

Columns and labels:
Assay in all cases: NCI tumour cell line growth inhibition, 48 h
786-0 renal = tested on: 786-0 renal
A498 renal = tested on: A498 renal
A549 NSCLC = tested on: A549 NSCLC
ACHN renal = tested on: ACHN renal
BT-549 breast = tested on: BT-549 breast
CAKI-1 renal = tested on: CAKI-1 renal
CCRF-CEM leukemia = tested on: CCRF-CEM leukemia
COLO 205 colon = tested on: COLO 205 colon
DU-145 prostate = tested on: DU-145 prostate
EKVX NSCLC = tested on: EKVX NSCLC
HCC-2998 colon = tested on: HCC-2998 colon
HCT-116 colon = tested on: HCT-116 colon
HCT-15 colon = tested on: HCT-15 colon
HL-60(TB) leukemia = tested on: HL-60(TB) leukemia
HOP-62 NSCLC = tested on: HOP-62 NSCLC
HOP-92 NSCLC = tested on: HOP-92 NSCLC
HS 578T breast = tested on: HS 578T breast
HT29 colon = tested on: HT29 colon
IGROV1 ovarian = tested on: IGROV1 ovarian
K-562 leukemia = tested on: K-562 leukemia
KM12 colon = tested on: KM12 colon
LOX IMVI melanoma = tested on: LOX IMVI melanoma
M14 melanoma = tested on: M14 melanoma
MALME-3M melanoma = tested on: MALME-3M melanoma
MCF7 breast = tested on: MCF7 breast
MDA-MB-231 breast = tested on: MDA-MB-231 breast
MDA-MB-435 = tested on: MDA-MB-435
MOLT-4 leukemia = tested on: MOLT-4 leukemia
NCI-H226 lung = tested on: NCI-H226 lung
NCI-H23 lung = tested on: NCI-H23 lung
NCI-H460 lung = tested on: NCI-H460 lung
NCI-H522 lung = tested on: NCI-H522 lung
NCI/ADR-RES ovarian = tested on: NCI/ADR-RES ovarian
OVCAR-3 ovarian = tested on: OVCAR-3 ovarian
OVCAR-4 ovarian = tested on: OVCAR-4 ovarian
OVCAR-5 ovarian = tested on: OVCAR-5 ovarian
OVCAR-8 ovarian = tested on: OVCAR-8 ovarian
PC-3 prostate = tested on: PC-3 prostate
RPMI-8226 leukemia = tested on: RPMI-8226 leukemia
RXF 393 renal = tested on: RXF 393 renal
SF-268 CNS = tested on: SF-268 CNS
SF-295 CNS = tested on: SF-295 CNS
SF-539 CNS = tested on: SF-539 CNS
SK-MEL-2 melanoma = tested on: SK-MEL-2 melanoma
SK-MEL-28 melanoma = tested on: SK-MEL-28 melanoma
SK-MEL-5 melanoma = tested on: SK-MEL-5 melanoma
SK-OV-3 ovarian = tested on: SK-OV-3 ovarian
SN12C renal = tested on: SN12C renal
SNB-19 CNS = tested on: SNB-19 CNS
SNB-75 CNS = tested on: SNB-75 CNS
SR leukemia = tested on: SR leukemia
SW-620 colon = tested on: SW-620 colon
T-47D breast = tested on: T-47D breast
TK-10 renal = tested on: TK-10 renal
U251 CNS = tested on: U251 CNS
UACC-257 melanoma = tested on: UACC-257 melanoma
UACC-62 melanoma = tested on: UACC-62 melanoma
UO-31 renal = tested on: UO-31 renal

Work on `C[C@]1(c2nc3c(C(N)=O)cccc3[nH]2)CCCN1` yielded a GI50 (786-0 renal) of over 100 µM, a TGI (786-0 renal) of over 100 µM and a GI50 (A498 renal) of over 100 µM. The TGI (A498 renal) was over 100 µM, the GI50 (A549 NSCLC) was > 65.8 µM and 74.9 µM and the TGI (A549 NSCLC) was over 100 µM. For the same compound, the GI50 (ACHN renal) was 41.8 µM and > 100 µM, the TGI (ACHN renal) was over 100 µM and the GI50 (BT-549 breast) was over 100 µM. The TGI (BT-549 breast) was over 100 µM, the GI50 (CAKI-1 renal) was 59 µM and 74.9 µM and the TGI (CAKI-1 renal) was over 100 µM. The GI50 (CCRF-CEM leukemia) was over 100 µM, the TGI (CCRF-CEM leukemia) was over 100 µM and the GI50 (COLO 205 colon) was 72.8 µM and > 100 µM. The TGI (COLO 205 colon) was over 100 µM, the GI50 (DU-145 prostate) was 74 µM and > 100 µM and the TGI (DU-145 prostate) was over 100 µM. For the same compound, the GI50 (EKVX NSCLC) was over 100 µM, the TGI (EKVX NSCLC) was over 100 µM and the GI50 (HCC-2998 colon) was over 100 µM. For the same compound, the TGI (HCC-2998 colon) was over 100 µM, the GI50 (HCT-116 colon) was 48.2 µM and 65.7 µM and the TGI (HCT-116 colon) was over 100 µM. For the same compound, the GI50 (HCT-15 colon) was 54.4 µM and > 100 µM, the TGI (HCT-15 colon) was over 100 µM and the GI50 (HL-60(TB) leukemia) was 66.1 µM and > 100 µM. The TGI (HL-60(TB) leukemia) was over 100 µM, the GI50 (HOP-62 NSCLC) was over 100 µM and the TGI (HOP-62 NSCLC) was over 100 µM. It also gave a GI50 (HOP-92 NSCLC) of over 67.9 µM, a TGI (HOP-92 NSCLC) of over 100 µM and a GI50 (HS 578T breast) of over 100 µM. For the same compound, the TGI (HS 578T breast) was over 100 µM, the GI50 (HT29 colon) was 61.5 µM and > 100 µM and the TGI (HT29 colon) was over 100 µM. For the same compound, the GI50 (IGROV1 ovarian) was 32.7 µM and 60.5 µM, the TGI (IGROV1 ovarian) was over 100 µM and the GI50 (K-562 leukemia) was over 100 µM. For the same compound, the TGI (K-562 leukemia) was over 100 µM, the GI50 (KM12 colon) was 61.9 µM and > 86.2 µM and the TGI (KM12 colon) was over 100 µM. The GI50 (LOX IMVI melanoma) was 66.1 µM and 97.7 µM, the TGI (LOX IMVI melanoma) was over 100 µM and the GI50 (M14 melanoma) was over 100 µM. The TGI (M14 melanoma) was over 100 µM, the GI50 (MALME-3M melanoma) was 43.4 µM and > 85.8 µM and the TGI (MALME-3M melanoma) was 97.9 µM and > 100 µM. The GI50 (MCF7 breast) was 34.2 µM and > 71.3 µM, the TGI (MCF7 breast) was over 100 µM and the GI50 (MDA-MB-231 breast) was 98.3 µM and > 100 µM. The TGI (MDA-MB-231 breast) was over 100 µM, the GI50 (MDA-MB-435) was over 100 µM and the TGI (MDA-MB-435) was over 100 µM. The GI50 (MOLT-4 leukemia) was over 100 µM, the TGI (MOLT-4 leukemia) was over 100 µM and the GI50 (NCI-H226 lung) was 50.6 µM and > 74.5 µM. It also gave a TGI (NCI-H226 lung) of over 100 µM, a GI50 (NCI-H23 lung) of over 100 µM and a TGI (NCI-H23 lung) of over 100 µM. The GI50 (NCI-H460 lung) was 35.5 µM and 48.6 µM, the TGI (NCI-H460 lung) was over 100 µM and the GI50 (NCI-H522 lung) was > 63 µM and 97.6 µM. It also gave a TGI (NCI-H522 lung) of over 100 µM, a GI50 (NCI/ADR-RES ovarian) of over 100 µM and a TGI (NCI/ADR-RES ovarian) of over 100 µM. For the same compound, the GI50 (OVCAR-3 ovarian) was 53.6 µM and > 100 µM, the TGI (OVCAR-3 ovarian) was over 100 µM and the GI50 (OVCAR-4 ovarian) was 66.1 µM and > 100 µM. The TGI (OVCAR-4 ovarian) was over 100 µM, the GI50 (OVCAR-5 ovarian) was 23.5 µM and > 75 µM and the TGI (OVCAR-5 ovarian) was over 100 µM. The GI50 (OVCAR-8 ovarian) was 69.5 µM and 99.8 µM, the TGI (OVCAR-8 ovarian) was over 100 µM and the GI50 (PC-3 prostate) was over 100 µM. For the same compound, the TGI (PC-3 prostate) was over 100 µM, the GI50 (RPMI-8226 leukemia) was > 100 µM and 61.6 µM and the TGI (RPMI-8226 leukemia) was over 100 µM. The GI50 (RXF 393 renal) was over 90.3 µM, the TGI (RXF 393 renal) was over 100 µM and the GI50 (SF-268 CNS) was over 100 µM. The TGI (SF-268 CNS) was over 100 µM, the GI50 (SF-295 CNS) was 56.1 µM and > 58.3 µM and the TGI (SF-295 CNS) was over 100 µM. For the same compound, the GI50 (SF-539 CNS) was 79.7 µM and > 100 µM, the TGI (SF-539 CNS) was over 100 µM and the GI50 (SK-MEL-2 melanoma) was 79.4 µM and > 100 µM. For the same compound, the TGI (SK-MEL-2 melanoma) was over 100 µM, the GI50 (SK-MEL-28 melanoma) was 75.1 µM and > 100 µM and the TGI (SK-MEL-28 melanoma) was over 100 µM. The GI50 (SK-MEL-5 melanoma) was > 76.4 µM and 98.5 µM, the TGI (SK-MEL-5 melanoma) was over 100 µM and the GI50 (SK-OV-3 ovarian) was over 100 µM. For the same compound, the TGI (SK-OV-3 ovarian) was over 100 µM, the GI50 (SN12C renal) was 79.9 µM and > 85.5 µM and the TGI (SN12C renal) was over 100 µM. The GI50 (SNB-19 CNS) was over 100 µM, the TGI (SNB-19 CNS) was over 100 µM and the GI50 (SNB-75 CNS) was over 100 µM. The TGI (SNB-75 CNS) was over 100 µM, the GI50 (SR leukemia) was 19.5 µM and 10.4 µM and the TGI (SR leukemia) was > 90 µM and 51.4 µM. The GI50 (SW-620 colon) was 89.4 µM and > 100 µM, the TGI (SW-620 colon) was over 100 µM and the GI50 (T-47D breast) was 68.4 µM and > 100 µM. It also gave a TGI (T-47D breast) of over 100 µM, a GI50 (TK-10 renal) of over 100 µM and a TGI (TK-10 renal) of over 100 µM. For the same compound, the GI50 (U251 CNS) was 75.9 µM and > 100 µM, the TGI (U251 CNS) was over 100 µM and the GI50 (UACC-257 melanoma) was 99.9 µM and > 100 µM. The TGI (UACC-257 melanoma) was over 100 µM, the GI50 (UACC-62 melanoma) was over 100 µM and the TGI (UACC-62 melanoma) was over 100 µM. It also gave a GI50 (UO-31 renal) of over 92.8 µM and a TGI (UO-31 renal) of over 100 µM.
